Results published in patent publication US20240148821A1, “PHARMACEUTICAL USE OF CYCLIC PEPTIDE COMPOUND” (CHUGAI SEIYAKU KABUSHIKI KAISHA, priority 2021, published 2024).
pIC50: −log10 of the molar value. Numbered stars: 1 amine (or outer) side, 2 acyl side, 3 side chain; on linkers, the order of the positions; unused ones are H or OH. Bridge positions count the residues as written; N and C are the ends. Square brackets hold non-standard residues; d marks the D form. Peptide text beside a SMILES is read from it. * marks the point of attachment. hPhe(3-Cl-4-CF3) = N[C@@H](CCc1ccc(C(F)(F)F)c(Cl)c1)C(=O)O; X25 = COc1ccc(C[C@@H](C(=O)[*:2])N(C)[*:1])cn1; NMePhe(4-Me) = CN[C@@H](Cc1ccc(C)cc1)C(=O)O; Phe(3-I) = N[C@@H](Cc1cccc(I)c1)C(=O)O; NMeY = CN[C@@H](Cc1ccc(O)cc1)C(=O)O; NMeCha = CN[C@@H](CC1CCCCC1)C(=O)O; NMeChg = CN[C@H](C(=O)O)C1CCCCC1; NMeF = CN[C@@H](Cc1ccccc1)C(=O)O; NMeD = CN[C@@H](CC(=O)O)C(=O)O; NMeL = CN[C@@H](CC(C)C)C(=O)O; d(β3hA) = C[C@@H](N)CC(=O)O; NMeS = CN[C@@H](CO)C(=O)O; NMeA = CN[C@@H](C)C(=O)O; Piperidide = C1CCN(*)CC1; Pyrrolidide = C1CCN(*)C1; Ac5c = NC1(C(=O)O)CCCC1; Aze = O=C(O)[C@@H]1CCN1; CH2CMe2OH = CC(C)(O)C*; βAla = NCCC(=O)O; Sar = CNCC(=O)O

Tested on: Human pancreatic cancer cell line AsPC-1 (G12D mutation Kras)
Experiment: AsPC-1 cell growth inhibition (AsPC-1 CGI)
Format: cell-based
Details: read-out: AsPC-1 cell growth inhibition, 50% growth inhibitory concentration (IC50 value); 96 hours, CellTiter-Glo, values classified in ranges
Method: Test compounds were serially dilated with dimethyl sulfoxide, and 200 nL was then dispensed to a U-bottom 96-well plate using Labcyte Echo. […] The cell suspension was dispensed to a. plate containing a test compound at 100 μL per well and incubated at 37° C. in a 5% carbon dioxide gas incubator. 96 hours later, 80 μL of CellTiter-Glo (Promega) was added to each well and fluorescence was measured.

Row | SMILES | pIC50
1 | CC[C@H](C)[C@@H]1NC(=O)[C@H](CC(C)C)N(C)C(=O)C[C@@H](C(=O)N2CCCCC2)N(C)C(=O)[C@H](C2CCCCC2)N(C)C(=O)[C@H](C)NC(=O)[C@@H]2CCCN2C(=O)[C@H](CCc2ccc(C(F)(F)F)c(Cl)c2)NC(=O)CN(C)C(=O)[C@H](CC2CCCCC2)N(C)C(=O)CN(C)C(=O)CN(C)C1=O [Compound 591] ([NMeL]I[Sar][Sar][NMeCha][Sar][hPhe(3-Cl-4-CF3)]PA[NMeChg][NMeD]-Piperidide; lactam N-11) | < 6.30
2 | CC[C@H](C)[C@@H]1NC(=O)[C@H](CC(C)C)N(C)C(=O)C[C@@H](C)NC(=O)[C@H](C2CCCCC2)N(C)C(=O)C2(CCCC2)NC(=O)[C@@H]2CCCN2C(=O)[C@H](CCc2ccc(C(F)(F)F)c(Cl)c2)NC(=O)CN(C)C(=O)[C@H](CC2CCCCC2)N(C)C(=O)CN(C)C(=O)CN(C)C1=O [Compound 593] (cyclo([Ac5c][NMeChg][d(β3hA)][NMeL]I[Sar][Sar][NMeCha][Sar][hPhe(3-Cl-4-CF3)]P)) | < 6.30
3 | CC(C)C[C@H]1C(=O)N[C@@H]([C@@H](C)O)C(=O)N(C)CC(=O)N(C)CC(=O)N(C)[C@@H](CC2CCCCC2)C(=O)N(C)CC(=O)N[C@@H](CCc2ccc(C(F)(F)F)c(Cl)c2)C(=O)N2CCC[C@H]2C(=O)NC2(CCCC2)C(=O)N(C)[C@@H](C2CCCCC2)C(=O)N(C)[C@H](C(=O)N2CCCCC2)CC(=O)N1C [Compound 603] ([NMeL]T[Sar][Sar][NMeCha][Sar][hPhe(3-Cl-4-CF3)]P[Ac5c][NMeChg][NMeD]-Piperidide; lactam N-11) | < 6.30
4 | CC[C@H](C)[C@@H]1NC(=O)[C@H](C)N(C)C(=O)C[C@@H](C(=O)N2CCCC2)N(C)C(=O)[C@H](CC(C)C)NC(=O)[C@H](Cc2ccccc2)N(C)C(=O)[C@H](C)NC(=O)[C@H](Cc2cccc(I)c2)NC(=O)CN(C)C(=O)[C@H](Cc2ccc(OC)cc2)N(C)C(=O)[C@@H]2CCN2C(=O)[C@H](C)N(C)C1=O [Compound 604] ([NMeA]I[NMeA][Aze][NMeY](Me)[Sar][Phe(3-I)]A[NMeF]L[NMeD]-Pyrrolidide; lactam N-11) | < 6.30
5 | CC[C@H](C)[C@@H]1NC(=O)CCNC(=O)[C@H](COCC(C)(C)O)N(C)C(=O)[C@H](C2CCCCC2)N(C)C(=O)C2(CCCC2)NC(=O)[C@@H]2CCCN2C(=O)[C@H](CCc2ccc(C(F)(F)F)c(Cl)c2)NC(=O)CN(C)C(=O)[C@H](CC2CCCCC2)N(C)C(=O)CN(C)C(=O)CN(C)C1=O [Compound 605] (cyclo([Ac5c][NMeChg][NMeS](CH2CMe2OH)[βAla]I[Sar][Sar][NMeCha][Sar][hPhe(3-Cl-4-CF3)]P)) | < 6.30
6 | CC[C@H](C)[C@@H]1NC(=O)[C@H](CC(C)C)N(C)C(=O)C[C@@H](C(=O)N2CCCCC2)N(C)C(=O)[C@H](C2CCCCC2)N(C)C(=O)C2(CCCC2)NC(=O)[C@H](Cc2ccc(OC)nc2)N(C)C(=O)[C@H](CCc2ccc(C(F)(F)F)c(Cl)c2)NC(=O)CN(C)C(=O)[C@H](CC2CCCCC2)N(C)C(=O)[C@@H]2CCN2C(=O)CN(C)C1=O [Compound 614] ([NMeL]I[Sar][Aze][NMeCha][Sar][hPhe(3-Cl-4-CF3)][X25][Ac5c][NMeChg][NMeD]-Piperidide; lactam N-11) | < 6.30
7 | CC[C@H](C)[C@@H]1NC(=O)[C@H](CC(C)C)N(C)C(=O)C[C@@H](C(=O)N2CCCCC2)N(C)C(=O)[C@H](CC(C)C)NC(=O)[C@H](Cc2ccccc2)N(C)C(=O)[C@H](C)NC(=O)[C@H](Cc2cccc(I)c2)NC(=O)CN(C)C(=O)[C@H](Cc2ccc(C)cc2)N(C)C(=O)CN(C)C(=O)CN(C)C1=O [Compound 619] ([NMeL]I[Sar][Sar][NMePhe(4-Me)][Sar][Phe(3-I)]A[NMeF]L[NMeD]-Piperidide; lactam N-11) | < 6.30
8 | CC[C@H](C)[C@@H]1NC(=O)[C@H](CC(C)C)N(C)C(=O)C[C@@H](C(=O)N2CCCCC2)N(C)C(=O)[C@H](C2CCCCC2)N(C)C(=O)C2(CCCC2)NC(=O)[C@@H]2CCCN2C(=O)[C@H](CCc2ccc(C(F)(F)F)c(Cl)c2)NC(=O)CN(C)C(=O)[C@H](COC)N(C)C(=O)CN(C)C(=O)CN(C)C1=O [Compound 623] ([NMeL]I[Sar][Sar][NMeS](Me)[Sar][hPhe(3-Cl-4-CF3)]P[Ac5c][NMeChg][NMeD]-Piperidide; lactam N-11) | < 6.30
